# Source: patent publication US8372837B2, “Pyridone and pyridazone analogues as GPR119 modulators” (Bristol-Myers Squibb Company, priority 2008, dated 2013)
# Molecular target: T1, hGPR119 (Homo sapiens, UniProt Q8TDV5)
# T1 construct: expressed in transfected cells; host or cells: Flp-In T-REx 293 (tetracycline-inducible)
# T1 sequence (Q8TDV5 1-335): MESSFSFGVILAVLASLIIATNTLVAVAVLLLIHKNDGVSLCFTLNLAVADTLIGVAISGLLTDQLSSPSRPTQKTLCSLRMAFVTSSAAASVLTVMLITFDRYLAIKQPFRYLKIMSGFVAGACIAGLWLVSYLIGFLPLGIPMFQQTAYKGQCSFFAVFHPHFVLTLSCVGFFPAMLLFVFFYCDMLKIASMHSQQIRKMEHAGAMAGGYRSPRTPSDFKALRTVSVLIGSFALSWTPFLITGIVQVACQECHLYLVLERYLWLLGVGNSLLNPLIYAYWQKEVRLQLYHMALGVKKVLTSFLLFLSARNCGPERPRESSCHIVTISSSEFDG
# Experiment: Human Tet-inducible cAMP assay
# Format: cell-based
# Conditions: Flp-In T-REx 293 tetracycline inducible cells expressing GPR119; cAMP by HITHUNTER kit; 1 hour incubation
# Procedure: The in vitro modulation of recombinant human GPR119 was determined as follows.
# Human Tet-Inducible cAMP Assay
# Cell lines expressing GPR119 are generated using the Flp-In T-REx 293 tetracycline inducible gene expression system are cultured in culture medium comprising the following components: DMEM#11965, 10% FBS, 2 mM L-glutamine, 200 ug/ml Hygromycin B, and 15 ug/ml blasticidin.
# For cAMP assays, cells are plated on 96 well plates (e.g., BD Falcon: REF 353948, black side, clear bottom, TC surface) at a density of about 4.5×10^4 cells per well in growth medium containing 1.0 ug/ml tetracycline (1.0 mg/ml stock). The cells are then incubated for 48 hours at 37° C.
# Following the incubation, the growth medium is removed from the wells and the wells rinsed (once) with the assay buffer included in the HITHUNTER® cAMP kit (100 μl/well). Following the wash, 20 μl of assay buffer is added to each well, followed by addition of 10 μl of a 3× concentration compound working solution. The solution is then mixed. The final concentration range of compound is from about 10^−5M to about 10^−11 M. The reagents are then incubated at 37° C. at 5% CO2 for 1 hour.
# The manufacturer's protocol may be followed for cAMP determination. The HITHUNTER® cAMP kit protocol is outlined for the HIT-T15 cAMP assays described above.
# Compounds of the present invention were tested in the Human Tet-inducible cAMP assay described immediately above and the results shown in Table 1 below were obtained.
row,SMILES,EC50
1,"CC(C)(C)OC(=O)N1CCC(Oc2cc(=O)n(-c3ccc(Cl)c(Cl)c3)nc2C(N)=O)CC1 [Example 16, tert-Butyl 4-(3-carbamoyl-1-(3,4-dichlorophenyl)-6-oxo-1,6-dihydropyridazin-4-yloxy)piperidine-1-carboxylate]",3390 nM
2,"COC(=O)c1nn(-c2ccc(S(C)(=O)=O)cc2)c(=O)cc1OC1CCN(C(=O)OC(C)(C)C)CC1 [Example 18, Methyl 4-(1-(tert-butoxycarbonyl)piperidin-4-yloxy)-1-(4-(methylsulfonyl)phenyl)-6-oxo-1,6-dihydropyridazine-3-carboxylate]",4010 nM
3,"COC(=O)c1nn(-c2ccc(C#N)c(F)c2)c(=O)cc1OC1CCN(c2ncc(Br)cn2)CC1 [Example 42, Methyl 4-(1-(5-bromopyrimidin-2-yl)piperidin-4-yloxy)-1-(4-cyano-3-fluorophenyl)-6-oxo-1,6-dihydropyridazine-3-carboxylate]",107 nM
4,"CCCc1cnc(N2CCC(Oc3cc(=O)n(-c4ccc(C#N)c(F)c4)nc3C#N)CC2)nc1 [Example 38, 1-(4-Cyano-3-fluorophenyl)-6-oxo-4-(1-(5-propylpyrimidin-2-yl)piperidin-4-yloxy)-1,6-dihydropyridazine-3-carbonitrile]",8 nM
5,"CC(C)(C)OC(=O)N1CCC(Oc2cc(=O)n(-c3ccc(C#N)c(F)c3)nc2C#N)CC1 [Example 34, tert-Butyl 4-(3-cyano-1-(4-cyano-3-fluorophenyl)-6-oxo-1,6-dihydropyridazin-4-yloxy)piperidine-1-carboxylate]",3 nM
6,"CC(=O)c1cnc(N2CCC(Oc3cnn(-c4ccc(S(C)(=O)=O)cc4)c(=O)c3)CC2)nc1 [Example 11, 5-(1-(5-Acetylpyrimidin-2-yl)piperidin-4-yloxy)-2-(4-(methylsulfonyl)phenyl)pyridazin-3(2H)-one]",4600 nM

# Results, then the molecule that gave them:
row,EC50,SMILES
1,5 nM,"N#Cc1nn(-c2ccc(Cl)c(Cl)c2)c(=O)cc1OC1CCN(c2ncc(C(F)(F)F)cn2)CC1 [Example 26, 1-(3,4-Dichlorophenyl)-6-oxo-4-(1-(5-(trifluoromethyl)pyrimidin-2-yl)piperidin-4-yloxy)-1,6-dihydropyridazine-3-carbonitrile]"
2,83 nM,"CC(C)(C)OC(=O)N1CCC(Oc2cc(=O)n(-c3ccc(S(C)(=O)=O)cc3)nc2C#N)CC1 [Example 31, tert-Butyl 4-(3-cyano-1-(4-(methylsulfonyl)phenyl)-6-oxo-1,6-dihydropyridazin-4-yloxy)piperidine-1-carboxylate]"
3,95 nM,"CC(C)(C)OC(=O)N1CCC(Oc2cc(=O)n(-c3ccc(Br)c(F)c3)nc2C#N)CC1 [Example 45, tert-Butyl 4-(1-(4-bromo-3-fluorophenyl)-3-cyano-6-oxo-1,6-dihydropyridazin-4-yloxy)piperidine-1-carboxylate]"
